system: SMARTCAR-MTH1-wt-HiBiT (Jurkat.7 cells); experiment: HiBit Lytic Assay (HiBit DC50, MTH1 degraders of Table 2); assay type: cell-based, human; details: Jurkat.7 SMARTCAR-MTH1-wt-HiBiT cells, compound treatment time 4 hr, 11-point half log dose response
Method in brief: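 Jurkat.7 cells expressing SMARTCAR-MTH1-wt-HiBiT were treated at 37° C with 11-point half-log dilutions (top final 1000 nM or 833 nM, duplicates, 0.1% DMSO). Remaining HiBiT-tagged protein was read by Nano-Glo HiBiT lytic luminescence, normalized to media-only and DMSO controls.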

`CNc1c(C(=O)NC2CC2)cnc2cc(F)c(-c3ccc(C(=O)NCCCCn4cc(CNc5cccc6c5C(=O)N(C5CCC(=O)NC5=O)C6=O)nn4)c(F)c3)cc12` (stereo not shown) [Compound 411, N-cyclopropyl-6-[4-[4-[4-[[[2-(2,6-dioxo-3-piperidyl)-1,3-dioxo-isoindolin-4-yl]amino]methyl]triazol-1-yl]butylcarbamoyl]-3-fluoro-phenyl]-7-fluoro-4-(methylamino)quinoline-3-carboxamide] and `CNc1c(C(=O)NC2CC2)cnc2cc(F)c(-c3ccc(C(=O)NCCCCn4cc(COc5cccc6c5C(=O)N(C5CCC(=O)NC5=O)C6=O)nn4)c(F)c3)cc12` (stereo not shown) [Compound 412, N-cyclopropyl-6-[4-[4-[4-[[2-(2,6-dioxo-3-piperidyl)-1,3-dioxo-isoindolin-4-yl]oxymethyl]triazol-1-yl]butylcarbamoyl]-3-fluoro-phenyl]-7-fluoro-4-(methylamino)quinoline-3-carboxamide] cannot be ordered by DC50: less than 100 nM for the first, less than 100 nM for the second.

`O=C1CCC(N2C(=O)c3cccc(OCc4cn(CCCCNC(=O)c5ccc(-c6cc7c(Nc8ccccc8)c(C(=O)NC8CC8)cnc7cc6F)cc5F)nn4)c3C2=O)C(=O)N1` (stereo not shown) [Compound 413, 4-anilino-N-cyclopropyl-6-[4-[4-[4-[[2-(2,6-dioxo-3-piperidyl)-1,3-dioxo-isoindolin-4-yl]oxymethyl]triazol-1-yl]butylcarbamoyl]-3-fluoro-phenyl]-7-fluoro-quinoline-3-carboxamide] and `COc1cc2ncc(C(=O)NC3CC3)c(Nc3ccccc3)c2cc1-c1ccc(C(=O)NCCCCn2cc(COc3cccc4c3C(=O)N(C3CCC(=O)NC3=O)C4=O)nn2)c(F)c1` (stereo not shown) [Compound 414, 4-anilino-N-cyclopropyl-6-[4-[4-[4-[[2-(2,6-dioxo-3-piperidyl)-1,3-dioxo-isoindolin-4-yl]oxymethyl]triazol-1-yl]butylcarbamoyl]-3-fluoro-phenyl]-7-methoxy-quinoline-3-carboxamide] cannot be ordered by DC50: less than 100 nM for the first, less than 100 nM for the second.

`O=C1CCC(N2C(=O)c3cccc(OCc4cn(CCCCNC(=O)c5ccc(-c6cc7c(Nc8ccccc8)c(C(=O)NC8CC8)cnc7cc6C(F)(F)F)cc5F)nn4)c3C2=O)C(=O)N1` (stereo not shown) [Compound 415, 4-anilino-N-cyclopropyl-6-[4-[4-[4-[[2-(2,6-dioxo-3-piperidyl)-1,3-dioxo-isoindolin-4-yl]oxymethyl]triazol-1-yl]butylcarbamoyl]-3-fluoro-phenyl]-7-(trifluoromethyl)quinoline-3-carboxamide] and `CC(Nc1cccc2c1C(=O)N(C1CCC(=O)NC1=O)C2=O)c1cn(CCCCNC(=O)c2ccc(-c3cc4c(Nc5ccccc5)c(C(=O)NC5CC5)cnc4cc3C(F)(F)F)cc2F)nn1` (stereo not shown) [Compound 434, N-cyclopropyl-6-(4-((4-(4-(1-((2-(2,6-dioxopiperidin-3-yl)-1,3-dioxoisoindolin-4-yl)amino)ethyl)-1H-1,2,3-triazol-1-yl)butyl)carbamoyl)-3-fluorophenyl)-4-(phenylamino)-7-(trifluoromethyl)quinoline-3-carboxamide] cannot be ordered by DC50: less than 100 nM for the first, less than 100 nM for the second.

`CNc1c(C(=O)NC2CC2)cnc2cc(F)c(-c3ccc(C(=O)NCCCCNC(=O)CCc4cccc5c4CN(C4CCC(=O)NC4=O)C5=O)c(F)c3)cc12` (stereo not shown) [Compound 419, N-cyclopropyl-6-[4-[4-[3-[2-(2,6-dioxo-3-piperidyl)-1-oxo-isoindolin-4-yl]propanoylamino]butylcarbamoyl]-3-fluoro-phenyl]-7-fluoro-4-(methylamino)quinoline-3-carboxamide] and `O=C1CCC(N2Cc3c(CCCC(O)C(=O)NCCNC(=O)c4ccc(-c5cc6c(Nc7ccccc7)c(C(=O)NC7CC7)cnc6cc5F)cc4F)cccc3C2=O)C(=O)N1` (stereo not shown) [Compound 439, N-cyclopropyl-6-(4-((2-(5-(2-(2,6-dioxopiperidin-3-yl)-1-oxoisoindolin-4-yl)-2-hydroxypentanamido)ethyl)carbamoyl)-3-fluorophenyl)-7-fluoro-4-(phenylamino)quinoline-3-carboxamide] cannot be ordered by DC50: less than 100 nM for the first, less than 100 nM for the second.

`CNc1c(C(=O)NC2CC2)cnc2cc(C(F)(F)F)c(-c3ccc(C(=O)NCCCCn4cc(C5(Nc6cccc7c6C(=O)N(C6CCC(=O)NC6=O)C7=O)CC5)nn4)c(F)c3)cc12` (stereo not shown) [Compound 421, N-cyclopropyl-6-[4-[4-[4-[1-[[2-(2,6-dioxo-3-piperidyl)-1,3-dioxo-isoindolin-4-yl]amino]cyclopropyl]triazol-1-yl]butylcarbamoyl]-3-fluoro-phenyl]-4-(methylamino)-7-(trifluoromethyl)quinoline-3-carboxamide] and `CNc1c(C(=O)NC2CC2)cnc2cc(C(F)(F)F)c(-c3ccc(C(=O)NCCCCn4cc(C(C)Nc5cccc6c5C(=O)N(C5CCC(=O)NC5=O)C6=O)nn4)c(F)c3)cc12` (stereo not shown) [Compound 430, N-cyclopropyl-6-[4-[4-[4-[1-[[2-(2,6-dioxo-3-piperidyl)-1,3-dioxo-isoindolin-4-yl]amino]ethyl]triazol-1-yl]butylcarbamoyl]-3-fluoro-phenyl]-4-(methylamino)-7-(trifluoromethyl)quinoline-3-carboxamide] cannot be ordered by DC50: less than 100 nM for the first, less than 100 nM for the second.

`O=C(CNc1cccc2c1C(=O)N(C1CCC(=O)NC1=O)C2=O)NCCCCNC(=O)c1ccc(-c2cc3c(NC45CC(C4)C5)c(C(=O)NC4CC4)cnc3cc2F)cc1F` (stereo not shown) [Compound 424, 4-(3-bicyclo[1.1.1]pentanylamino)-N-cyclopropyl-6-[4-[4-[[2-[[2-(2,6-dioxo-3-piperidyl)-1,3-dioxo-isoindolin-4-yl]amino]acetyl]amino]butylcarbamoyl]-3-fluoro-phenyl]-7-fluoro-quinoline-3-carboxamide] and `O=C1CCC(N2C(=O)c3cccc(NCC(O)C(=O)NCCCNC(=O)c4ccc(-c5cc6c(Nc7ccccc7)c(C(=O)NC7CC7)cnc6cc5F)cc4F)c3C2=O)C(=O)N1` (stereo not shown) [Compound 440, N-cyclopropyl-6-(4-((3-(3-((2-(2,6-dioxopiperidin-3-yl)-1,3-dioxoisoindolin-4-yl)amino)-2-hydroxypropanamido)propyl)carbamoyl)-3-fluorophenyl)-7-fluoro-4-(phenylamino)quinoline-3-carboxamide] cannot be ordered by DC50: less than 100 nM for the first, less than 100 nM for the second.

`CC(NC(=O)CCCCNC(=O)CNc1cccc2c1C(=O)N(C1CCC(=O)NC1=O)C2=O)c1ccc(-c2cc3c(Nc4ccccc4)c(C(=O)NC4CC4)cnc3cc2F)cc1F` (stereo not shown) [Compound 429, 4-anilino-N-cyclopropyl-6-[4-[1-[5-[[2-[[2-(2,6-dioxo-3-piperidyl)-1,3-dioxo-isoindolin-4-yl]amino]acetyl]amino]pentanoylamino]ethyl]-3-fluoro-phenyl]-7-fluoro-quinoline-3-carboxamide] and `CC(Nc1cccc2c1C(=O)N(C1CCC(=O)NC1=O)C2=O)c1cn(CCCCNC(=O)c2ccc(-c3cc4c(Nc5ccccc5)c(C(=O)NC5CC5)cnc4cc3F)cc2F)nn1` (stereo not shown) [Compound 433, N-cyclopropyl-6-(4-((4-(4-(1-((2-(2,6-dioxopiperidin-3-yl)-1,3-dioxoisoindolin-4-yl)amino)ethyl)-1H-1,2,3-triazol-1-yl)butyl)carbamoyl)-3-fluorophenyl)-7-fluoro-4-(phenylamino)quinoline-3-carboxamide] cannot be ordered by DC50: less than 100 nM for the first, less than 100 nM for the second.

`CNc1c(C(=O)NC2CC2)cnc2cc(C(F)(F)F)c(-c3ccc(C(=O)NCCCCn4cc(C(C)Nc5cccc6c5C(=O)N(C5CCC(=O)NC5=O)C6=O)nn4)nc3)cc12` (stereo not shown) [Compound 431, N-cyclopropyl-6-(6-((4-(4-(1-((2-(2,6-dioxopiperidin-3-yl)-1,3-dioxoisoindolin-4-yl)amino)ethyl)-1H-1,2,3-triazol-1-yl)butyl)carbamoyl)pyridin-3-yl)-4-(methylamino)-7-(trifluoromethyl)quinoline-3-carboxamide] and `CNc1c(C(=O)NC2CC2)cnc2cc(C(F)(F)F)c(-c3ccc(C(=O)NCCCCn4cc(C(C)(C)Nc5cccc6c5C(=O)N(C5CCC(=O)NC5=O)C6=O)nn4)nc3)cc12` (stereo not shown) [Compound 437, N-cyclopropyl-6-(6-((4-(4-(2-((2-(2,6-dioxopiperidin-3-yl)-1,3-dioxoisoindolin-4-yl)amino)propan-2-yl)-1H-1,2,3-triazol-1-yl)butyl)carbamoyl)pyridin-3-yl)-4-(methylamino)-7-(trifluoromethyl)quinoline-3-carboxamide] cannot be ordered by DC50: less than 1000 nM for the first, less than 100 nM for the second.

`COc1cc2ncc(C(=O)NC3CC3)c(Nc3ccccc3)c2cc1-c1ccc(C(=O)NCCCCn2cc(C(C)Nc3cccc4c3C(=O)N(C3CCC(=O)NC3=O)C4=O)nn2)c(F)c1` (stereo not shown) [Compound 432, N-cyclopropyl-6-(4-((4-(4-(1-((2-(2,6-dioxopiperidin-3-yl)-1,3-dioxoisoindolin-4-yl)amino)ethyl)-1H-1,2,3-triazol-1-yl)butyl)carbamoyl)-3-fluorophenyl)-7-methoxy-4-(phenylamino)quinoline-3-carboxamide] and `CNc1c(C(=O)NC2CC2)cnc2cc(F)c(-c3ccc(C(=O)NCCCCn4cc(C(C)(C)Nc5cccc6c5C(=O)N(C5CCC(=O)NC5=O)C6=O)nn4)c(F)c3)cc12` (stereo not shown) [Compound 436, N-cyclopropyl-6-(4-((4-(4-(2-((2-(2,6-dioxopiperidin-3-yl)-1,3-dioxoisoindolin-4-yl)amino)propan-2-yl)-1H-1,2,3-triazol-1-yl)butyl)carbamoyl)-3-fluorophenyl)-7-fluoro-4-(methylamino)quinoline-3-carboxamide] cannot be ordered by DC50: less than 100 nM for the first, less than 100 nM for the second.

`CNc1c(C(=O)NC2CC2)cnc2cc(C(F)(F)F)c(-c3ccc(C(=O)NCCCCn4cc(C(C)(C)Nc5cccc6c5C(=O)N(C5CCC(=O)NC5=O)C6=O)nn4)c(F)c3)cc12` (stereo not shown) [Compound 435, N-cyclopropyl-6-(4-((4-(4-(2-((2-(2,6-dioxopiperidin-3-yl)-1,3-dioxoisoindolin-4-yl)amino)propan-2-yl)-1H-1,2,3-triazol-1-yl)butyl)carbamoyl)-3-fluorophenyl)-4-(methylamino)-7-(trifluoromethyl)quinoline-3-carboxamide] showed a DC50 of less than 100 nM.
